In patent US6274715A, “Tricyclic erythromycin derivatives” (priority 1997, dated 2001):
Converted amounts (≈) assume the structure as drawn.

How the values were obtained:
Type in all cases: cell-based
ESCHERICHIA COLI H560 = assay: In vitro antibacterial activity, MIC, BHI agar dilution; details: E. coli H560, unit assumed
[1] = tested on: STREPTOCOCCUS PYOGENES 930; assay: as above; details: S. pyogenes 930, unit assumed
[2] = tested on: STAPHYLOCOCCUS AUREUS CMX 553; assay: as above; details: S. aureus CMX 553, unit assumed
[3] = tested on: ACINETOBACTER CALCOACETICUS CMX 669; assay: as above; details: A. calcoaceticus CMX 669, unit assumed
ESCHERICHIA COLI DC-2 = assay: as above; details: E. coli DC-2, unit assumed
[4] = tested on: PSEUDOMONAS AERUGINOSA DPHD-2862; assay: as above; details: P. aeruginosa DPHD-2862, unit assumed
[5] = tested on: PSEUDOMONAS AERUGINOSA DPHD-5263; assay: as above; details: P. aeruginosa DPHD-5263, unit assumed
[6] = tested on: PSEUDOMONAS AERUGINOSA BMH10; assay: as above; details: P. aeruginosa BMH10, unit assumed
[7] = tested on: STAPHYLOCOCCUS AUREUS CMX 642A; assay: as above; details: S. aureus CMX 642A, unit assumed
[8] = tested on: STREPTOCOCCUS PYOGENES EES61; assay: as above; details: S. pyogenes EES61, unit assumed
M[…] ATCC 9341 = assay: as above; details: M. luteus ATCC 9341, unit assumed
Summary of the method: (§1)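 BHI agar dilution, 12 plates; inoculum 1:100 (1:10 slow-growing strains), Steers replicator; 35-37° C, 20-24 h. MIC = lowest conc. with no growth/slight haze/sparse colonies vs growth control, visual read. Erythromycin A reference plate.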

M[…] ATCC 4698 = assay: as above; details: M. luteus ATCC 4698, unit assumed
Summary of the method: as §1

STR[…] 508 = assay: as above; details: S. agalactiae CMX 508, unit assumed
Summary of the method: as §1

EN[…] ATCC 8043 = assay: as above; details: E. faecium ATCC 8043, unit assumed
Summary of the method: as §1

[9] = tested on: MYCOBACTERIUM SMEGMATIS ATCC 114; assay: as above; details: M. smegmatis ATCC 114, unit assumed
[10] = tested on: STAPHYLOCOCCUS AUREUS 1775; assay: as above; details: S. aureus 1775, unit assumed
CANDIDA ALBICANS CCH 442 = assay: as above; details: C. albicans CCH 442, unit assumed
[11] = tested on: ENTEROBACTER AEROGENES ATCC 13048; assay: as above; details: E. aerogenes ATCC 13048, unit assumed
[12] = tested on: STREPTOCOCCUS BOVIS A-5169; assay: as above; details: S. bovis A-5169, unit assumed
[13] = tested on: STREPTOCOCCUS PYOGENES PIU 2548; assay: as above; details: S. pyogenes PIU 2548, unit assumed
[14] = tested on: PROVIDENCIA STUARTII CMX 640; details: P. stuartii CMX 640; BHI agar; unit assumed
[15] = tested on: STAPHYLOCOCCUS AUREUS ATCC 6538P; assay: In vitro antibacterial activity, MIC, BHI agar dilution; details: S. aureus ATCC 6538P, 35-37° C., 20 to 24 hours, unit assumed
[16] = tested on: STAPHYLOCOCCUS AUREUS A5177; assay: as above; details: S. aureus A5177, unit assumed
ESCHERICHIA COLI KNK 437 = details: E. coli KNK 437; BHI agar; unit assumed
[17] = tested on: KLEBSIELLA PNEUMONIAE ATCC 8045; assay: In vitro antibacterial activity, MIC, BHI agar dilution; details: K. pneumoniae ATCC 8045, unit assumed
PSEUDOMONAS CEPACIA 296I = assay: as above; details: P. cepacia 296I, unit assumed
ESCHERICHIA COLI JUHL = details: E. coli JUHL; BHI agar; unit assumed
[18] = tested on: STAPHYLOCOCCUS AUREUS A-5278; assay: In vitro antibacterial activity, MIC, BHI agar dilution; details: S. aureus A-5278, unit assumed
[19] = tested on: PSEUDOMONAS AERUGINOSA K799/61; assay: as above; details: P. aeruginosa K799/61, unit assumed
[20] = tested on: STAPHYLOCOCCUS AUREUS NCTC10649M; assay: as above; details: S. aureus NCTC10649M, unit assumed
[21] = tested on: STAPHYLOCOCCUS EPIDERMIDIS 3519; details: S. epidermidis 3519; BHI agar; unit assumed
[22] = tested on: PSEUDOMONAS AERUGINOSA K799/WT; assay: In vitro antibacterial activity, MIC, BHI agar dilution; details: P. aeruginosa K799/WT, unit assumed
[23] = tested on: PSEUDOMONAS AERUGINOSA 5007; assay: as above; details: P. aeruginosa 5007, unit assumed
ESCHERICHIA COLI SS = assay: as above; details: E. coli SS, unit assumed

SMILES	MIC (ESCHERICHIA COLI H560) [mg/L]	MIC [1] [mg/L]	MIC [2] [mg/L]	MIC [3] [mg/L]	MIC (ESCHERICHIA COLI DC-2) [mg/L]	MIC [4] [mg/L]	MIC [5] [mg/L]	MIC [6] [mg/L]	MIC [7] [mg/L]	MIC [8] [mg/L]	MIC (M[…] ATCC 9341) [mg/L]	MIC (M[…] ATCC 4698) [mg/L]	MIC (STR[…] 508) [mg/L]	MIC (EN[…] ATCC 8043) [mg/L]	MIC [9] [mg/L]	MIC [10] [mg/L]	MIC (CANDIDA ALBICANS CCH 442) [mg/L]	MIC [11] [mg/L]	MIC [12] [mg/L]	MIC [13] [mg/L]	other results
CC[C@H]1OC(=O)[C@H](C)C(=O)[C@H](C)[C@@H](O[C@@H]2O[C@H](C)C[C@H](N(C)C)[C@H]2O)[C@](C)(OC)C[C@@H](C)C2=NC[C@@H](COCc3ccccc3)N3C(=O)O[C@@]1(C)[C@H]3[C@H]2C [Example 37]	25 (≈ 33 µM)	100 (≈ 132 µM)	0.1 (≈ 0.132 µM)	25 (≈ 33 µM)	25 (≈ 33 µM)	> 100	> 100	50 (≈ 66 µM)	0.1 (≈ 0.132 µM)	≤ 0.005	0.01 (≈ 0.0132 µM)	0.2 (≈ 0.264 µM)	0.02 (≈ 0.0264 µM)	0.05 (≈ 0.066 µM)	0.39 (≈ 0.515 µM)	> 100	> 100	50 (≈ 66 µM)	≤ 0.005	0.39 (≈ 0.515 µM)	MIC [14]: > 100 mg/L; MIC [15]: 0.1 mg/L (≈ 0.132 µM); MIC [16]: 0.1 mg/L (≈ 0.132 µM); MIC (ESCHERICHIA COLI KNK 437): 25 mg/L (≈ 33 µM); MIC [17]: 50 mg/L (≈ 66 µM); MIC (PSEUDOMONAS CEPACIA 296I): 100 mg/L (≈ 132 µM); MIC (ESCHERICHIA COLI JUHL): 50 mg/L (≈ 66 µM); MIC [18]: > 100 mg/L; MIC [19]: 0.78 mg/L (≈ 1.03 µM); MIC [20]: 0.1 mg/L (≈ 0.132 µM); MIC [21]: 0.1 mg/L (≈ 0.132 µM); MIC [22]: > 100 mg/L; MIC [23]: > 100 mg/L; MIC (ESCHERICHIA COLI SS): 0.39 mg/L (≈ 0.515 µM)
CC[C@H]1OC(=O)[C@H](C)C(=O)[C@H](C)[C@@H](O[C@@H]2O[C@H](C)C[C@H](N(C)C)[C@H]2O)[C@](C)(OC)C[C@@H](C)C2=N[C@H](CN(C)Cc3ccccc3)CN3C(=O)O[C@@]1(C)[C@H]3[C@H]2C [Example 58]	50 (≈ 64.9 µM)	> 100	0.78 (≈ 1.01 µM)	> 100	> 100	> 100	> 100	> 100	0.78 (≈ 1.01 µM)	0.01 (≈ 0.013 µM)	0.1 (≈ 0.13 µM)	0.39 (≈ 0.506 µM)	0.02 (≈ 0.0259 µM)	0.2 (≈ 0.259 µM)	3.1 (≈ 4.02 µM)	> 100	> 100	> 100	0.01 (≈ 0.013 µM)	0.39 (≈ 0.506 µM)	MIC [14]: > 100 mg/L; MIC [15]: 0.78 mg/L (≈ 1.01 µM); MIC [16]: 0.78 mg/L (≈ 1.01 µM); MIC (ESCHERICHIA COLI KNK 437): > 100 mg/L; MIC [17]: > 100 mg/L; MIC (PSEUDOMONAS CEPACIA 296I): > 100 mg/L; MIC (ESCHERICHIA COLI JUHL): > 100 mg/L; MIC [18]: > 100 mg/L; MIC [19]: 3.1 mg/L (≈ 4.02 µM); MIC [20]: 0.78 mg/L (≈ 1.01 µM); MIC [21]: 0.78 mg/L (≈ 1.01 µM); MIC [22]: > 100 mg/L; MIC [23]: > 100 mg/L; MIC (ESCHERICHIA COLI SS): 0.39 mg/L (≈ 0.506 µM)
